# Paper PMC7136958, “Targeting the pregnane X receptor using microbial metabolite mimicry” (EMBO Molecular Medicine, 2020)
# “And” between values parts separate entries of the source, which are not always exact repeats. Equal values may be shown once.
# Experiments:
# [1] = biological target: T1, Mouse pregnane X receptor (mPXR) (Mus musculus, UniProt O54915); test: mPXR reporter (MRP2) activity in HEK293T cells; assay type: cell-based
# T1 construct: expressed in transfected cells; host or cells: HEK293T
# Protocol: Reverse transfection assays were performed in Caco‐2 cells as previously published with the following modifications (Kublbeck et al, 2015). 3.0 × 10^4 cells per well were transfected using pSG5‐PXR plasmid (300 ng/well), β‐Gal expression plasmid (600 ng/well), and CYP3A4‐luciferase reporter (500 ng/well) (Huang et al, 2007). After 24‐h transfection using Lipofectamine® LTX ([…] of plasmid), cells were exposed to FKK5 for 24 h. Cell lysates were prepared for β‐Gal and luciferase assays as previously published (Huang et al, 2007). The data are expressed as mean ± SD RLU (relative light units from luciferase assay) normalized to β‐Gal activity in the same well. Differences were tested using 2‐way ANOVA with Tukey's multiple comparison test, and P < 0.05 was considered significant (*). Standard transient transfection assays (PXR, CAR) in HEK293T cells were performed as previously published (Huang et al, 2007).
# P300 = biological target: T2, P300 (Homo sapiens, UniProt Q09472); test: Histone acetyltransferase assay p300 (Reaction Biology); assay type: biochemical
# T2 construct: or p300 (aa 1284-1672); purchased Reaction Biology Corp; host or cells: E. coli
# Protocol: Software Tool and reprinted with permission from KINOME scan®, a division of DiscoveRx […]
# The following […] assays (HDAC, SIRT1, PRMT1, PARP1, p300, pCAF) were performed by Reaction Biology Corp. FKK6 was screened at a single concentration of 10 μM in duplicate in two separate experiments. The appropriate controls for the individual assays are published. The overall […]
# enzyme activity in the assay is reported as a % activity in DMSO control wells. Control IC50 […]
# Briefly, for the Sirtuin (SIRT1) assay, human SIRT1 (GenBank
# Accession No. NM012238) full -length N-terminal His-tag protein (MW 83.2 kDa) was purified after expression in E. coli. […]
# 8), 50 mM NaCl, 0.1 mM EDTA, 1 mM DTT, 1 mM PMSF, and 1% DMSO. […] The radioactivity in mixture is detected on washed filter paper using a scintillation counter. […]
# The 2X HDAC substrate is a fluorogenic acetylated peptide from p53 (residues 379 - 38 2 RHKK(Ac)AMC) which is mixed in with the enzyme-compound complex and incubated for 1-2 h at 30 °C. In the development step, a proprietary developer with trichostatin A (or TMP269) is added to stop the reaction and to generate fluorescent color which is read using an EnVision Multilabel Plate Reader (Perkin Elmer) (Ex 360 nm/ Em 460 nm). […]
# JNK1 = JNK1 (Homo sapiens, UniProt P45983); test: KINOMEscan select kinase screen; assay type: binding; conditions: two experiments
# Protocol: (§1) Kinase Assays. The kinase inhibition assays were conducted by DiscoverX on a platform assay by Ambit BioSciences as described previously 16,17. FKK6 was screened at a single concentration of 10 μM in duplicate. The scanMAXSM assay panel measures 468 kinases
# (§2) (https://www.discoverx.com/services/drug-discovery-development-services/kinase-profiling/kinomescan/scanmax). The assays measure a compound’s ability to inhibit binding of a canonical ligand substrate, with 0% activity of control corresponding to full inhibition and 100% activity of control to no inhibition. […]
# JNK2 = JNK2 (Homo sapiens, UniProt P45984); test: KINOMEscan select kinase screen; assay type: binding; conditions: two experiments
# Protocol: as §1, §2
# S6K1 = S6K1 (Homo sapiens, UniProt P23443); test: KINOMEscan select kinase screen; assay type: binding; conditions: two experiments
# Protocol: as §1, §2
# Sequence of JNK2 (P45984 whole entry): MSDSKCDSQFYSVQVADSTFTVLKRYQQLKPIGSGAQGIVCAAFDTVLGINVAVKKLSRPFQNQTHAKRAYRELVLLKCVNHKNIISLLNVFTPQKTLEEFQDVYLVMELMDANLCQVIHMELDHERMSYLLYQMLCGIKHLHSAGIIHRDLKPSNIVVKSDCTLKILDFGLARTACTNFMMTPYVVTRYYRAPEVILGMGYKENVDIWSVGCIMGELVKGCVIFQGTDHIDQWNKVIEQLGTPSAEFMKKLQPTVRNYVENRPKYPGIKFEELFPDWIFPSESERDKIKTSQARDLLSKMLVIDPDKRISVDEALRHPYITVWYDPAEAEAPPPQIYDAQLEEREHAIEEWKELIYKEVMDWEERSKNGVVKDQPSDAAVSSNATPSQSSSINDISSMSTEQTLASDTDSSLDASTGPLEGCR
# Sequence of S6K1 (P23443 whole entry): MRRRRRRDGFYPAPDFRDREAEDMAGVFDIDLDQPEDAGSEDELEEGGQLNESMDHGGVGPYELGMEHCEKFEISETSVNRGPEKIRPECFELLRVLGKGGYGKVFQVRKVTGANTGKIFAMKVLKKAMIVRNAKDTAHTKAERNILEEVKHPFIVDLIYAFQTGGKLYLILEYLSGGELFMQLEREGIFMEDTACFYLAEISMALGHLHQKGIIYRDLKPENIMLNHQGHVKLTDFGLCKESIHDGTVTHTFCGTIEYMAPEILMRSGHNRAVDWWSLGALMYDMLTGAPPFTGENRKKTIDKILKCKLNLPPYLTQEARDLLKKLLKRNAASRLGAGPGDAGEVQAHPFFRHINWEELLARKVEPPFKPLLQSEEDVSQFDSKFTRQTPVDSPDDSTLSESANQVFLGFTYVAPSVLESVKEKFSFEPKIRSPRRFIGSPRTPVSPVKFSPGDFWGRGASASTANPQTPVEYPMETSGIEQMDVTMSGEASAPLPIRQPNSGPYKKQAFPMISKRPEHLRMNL
# Sequence of JNK1 (P45983 whole entry): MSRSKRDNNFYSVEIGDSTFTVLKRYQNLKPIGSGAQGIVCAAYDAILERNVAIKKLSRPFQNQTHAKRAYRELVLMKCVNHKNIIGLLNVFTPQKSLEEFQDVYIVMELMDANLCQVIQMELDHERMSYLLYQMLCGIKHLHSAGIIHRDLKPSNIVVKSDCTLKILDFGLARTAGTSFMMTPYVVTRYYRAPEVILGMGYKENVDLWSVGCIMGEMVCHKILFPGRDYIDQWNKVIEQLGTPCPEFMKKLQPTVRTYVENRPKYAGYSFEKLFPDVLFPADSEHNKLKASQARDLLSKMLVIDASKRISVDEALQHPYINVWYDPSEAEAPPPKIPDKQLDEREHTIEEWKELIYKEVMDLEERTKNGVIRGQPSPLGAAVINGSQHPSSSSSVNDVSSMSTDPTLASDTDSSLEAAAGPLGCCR
# T2 sequence (Q09472 1284-1672): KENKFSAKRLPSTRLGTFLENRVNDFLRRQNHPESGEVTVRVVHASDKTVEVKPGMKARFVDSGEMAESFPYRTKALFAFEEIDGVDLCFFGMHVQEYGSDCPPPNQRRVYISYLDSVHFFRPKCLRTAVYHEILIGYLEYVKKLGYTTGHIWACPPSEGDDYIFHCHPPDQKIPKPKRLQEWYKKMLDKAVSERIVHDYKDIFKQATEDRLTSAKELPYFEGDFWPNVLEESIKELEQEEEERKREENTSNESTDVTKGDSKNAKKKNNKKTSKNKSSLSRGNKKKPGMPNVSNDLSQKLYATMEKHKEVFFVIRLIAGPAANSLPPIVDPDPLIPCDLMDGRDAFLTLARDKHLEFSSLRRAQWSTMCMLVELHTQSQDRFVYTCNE
# T1 sequence (O54915 whole entry): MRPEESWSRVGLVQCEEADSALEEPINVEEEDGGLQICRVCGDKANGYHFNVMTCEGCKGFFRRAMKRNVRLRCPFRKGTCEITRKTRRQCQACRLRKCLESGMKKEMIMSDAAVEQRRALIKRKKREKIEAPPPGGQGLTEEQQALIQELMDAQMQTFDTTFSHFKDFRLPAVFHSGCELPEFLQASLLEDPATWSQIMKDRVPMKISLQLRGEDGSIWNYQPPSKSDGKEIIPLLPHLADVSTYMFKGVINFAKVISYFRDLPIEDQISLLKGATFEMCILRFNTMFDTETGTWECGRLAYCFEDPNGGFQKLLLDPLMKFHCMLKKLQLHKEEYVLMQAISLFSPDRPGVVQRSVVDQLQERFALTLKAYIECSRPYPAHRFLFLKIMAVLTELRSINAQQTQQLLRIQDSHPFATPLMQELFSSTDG
SMILES,mouse PXR activation [1],"% Enzyme Activity to DMSO controls (P300; 10 μM, substrate Histone H3, replicates data1/2 Exp 1/2)","remaining activity at 10 µM (P300; substrate Histone H3, replicates data1/2 Exp 1/2, read-out: % Enzyme Activity to DMSO controls) [%]","%Ctrl (JNK1; 10000 nM, 10 µM) [%Ctrl]","remaining binding at 10 µM (JNK1; 10000 nM, read-out: %Ctrl) [%]","%Ctrl (JNK1; 25000 nM, 25 µM) [%Ctrl]","remaining binding at 25 µM (JNK1; 25000 nM, read-out: %Ctrl) [%]","%Ctrl (JNK2; 10000 nM, 10 µM) [%Ctrl]","remaining binding at 10 µM (JNK2; 10000 nM, read-out: %Ctrl) [%]","%Ctrl (JNK2; 25000 nM, 25 µM) [%Ctrl]","remaining binding at 25 µM (JNK2; 25000 nM, read-out: %Ctrl) [%]","%Ctrl (S6K1; 10000 nM, 10 µM)","%Ctrl (S6K1; 25000 nM, 25 µM) [%Ctrl]","remaining binding at 25 µM (S6K1; 25000 nM, read-out: %Ctrl) [%]"
C#CCC(O)(c1ccncc1)c1cc2ccccc2n1S(=O)(=O)c1ccccc1 (centres unmarked) [FKK6],did not significantly activate,97.73% and 98.72% and 95.38%,100,–,–,–,–,–,–,–,–,–,–,–
"O=C(c1ccncc1)c1cc2ccccc2n1S(=O)(=O)c1ccccc1 [FKK5, (1-(phenylsulfonyl)-1H-indol-2-yl)(pyridin-4-yl)methanone]",–,–,–,95,91,85,66,88,95,80,74,79 %Ctrl and 100 %Ctrl,89,71
